# Laboratory results reported in US20070122830A1, “Prohibitin-directed diagnostics and therapeutics for cancer and chemotherapeutic drug resistance” (Aurelium BioPharma Inc., priority 2005, published 2007).
# Test system: prohibitin
# Experiment: Prohibitin silencing by siRNA in MDA cells, anti-prohibitin immunoblot
# Type: cell-based, human
# Conditions: for decrease in prohibitin expression: MDA cell lines
# Method: Cell extracts from drug-resistant and drug-sensitive cell lines were prepared to determine the expression levels of potential therapeutic targets in drug-resistant cells. Briefly, cultured cells were rinsed 2 times with 15 ml of 1× phosphate buffered saline (“PBS”), and harvested by trypsinization. Cells were collected in a 15 ml tube by centrifugation at 1000 rpm for 5 min. The supernatant was discarded and cells were washed 3 times with 1×PBS. The cell pellet was transferred to an Eppendorf tube and […] of 1×PBS were added. Cells were centrifuged 5 min. at 3000 rpm in an Eppendorf Microfuge. The supernatant was removed and cells were then lysed in […] of lysis buffer (50 mM Tris, pH 7.5, 150 mM NaCl, 1% NP-40, 0.5% sodium deoxycholate), containing protease inhibitors ([…], […] benzamidine, 0.2 mM PMSF) and incubated 5 min. on ice. The cell lysates were then centrifuged at 14,000×g for 10 min. at 4° C. The protein concentration of the supernatants was determined by the DC Protein assay (BioRad, Hercules, Calif.). Samples were subsequently stored at −80° C. until ready for analysis.
# Total cell lysates were thawed and then incubated with 1 U/ml DNAse I (New England BioLabs, Inc., Beverly, Mass.), 5 mM MgCl2 (final concentration) for 2 hours on ice. Their protein concentration was determined using the RC DC protein assay kit from BIORAD according to manufacturer's instructions (BioRad Laboratories, Hercules, Calif.) (see also Lowry et al., (1951) J. Biol. Chem. 193: 265-275). Equivalent amounts of proteins ([…]) from total cell extracts from sensitive (MCF7, MDA-MB-231) and chemotherapeutic drug-resistant cells (MCF7/AR and MDA-MB-231/AR) were analyzed by polyacrylamide gel electrophoresis followed by blotting to a nitrocellulose membrane. The membrane was subsequently contacted with an anti-prohibitin antibody obtained from Abcam, Inc., Cambridge, Mass. The immunoblots were incubated with an anti-IgG secondary antibody and visualized using horseradish peroxidase using the manufacturer's protocol (Bio-Rad Laboratories, Hercules, Calif.).
# To establish the importance of prohibitin to the expression of the drug-resistant phenotype in MDA cell lines, prohibitin expression was silenced using RNAi. Briefly, the following siRNA duplexes targeting the human prohibitin mRNA were designed and purchased either from Ambion (Austin, Tex.) or Invitrogen (Carlsbad, Calif.). […]
# The siRNA duplex was predesigned, synthesized with 3′TT overhangs, purified and annealed by Ambion (Austin, Tex.). […] Transfection efficiencies were typically evaluated 24-48 hrs post transfection using a fluorescence microscope. […]
substance,measurement,setting,value
"prohibitin siRNA: siRNA duplex to human prohibitin mRNA nt 425-443; sense 5′-GGAAGUGGUCUGUCUGUUAtt-3′, antisense 5′-UAACAGACAGACCACUUCCtt-3′ (sense GGAAGUGGUCUGUCUGUUATT; antisense UAACAGACAGACCACUUCCTT; chemistry not given here)",decrease in prohibitin expression,"four days post-treatment, FIG. 2",43%
same,decrease in prohibitin expression,"fourth day after treatment, FIG. 3",58%
same,decrease in prohibitin expression,"two days post-treatment, FIG. 2",79%
same,additional decrease in prohibitin expression compared to mock silencing,"MDA cells, FIG. 5",60%
